Reference: paper PMC6680510, “Benzotriazine Di-Oxide Prodrugs for Exploiting Hypoxia and Low Extracellular pH in Tumors” (Molecules, 2019)
Values joined by “and” are separate entries in the source; they are usually repeats but may differ in a detail not shown here. Identical values can stand only once. Like-named read-outs stand apart in the source and are kept apart here. Blank lines part the entries; values can stand above or below the molecule they belong to.

How the values were obtained:
FaDu cells = assay: IC50 assay (inhibition of proliferation, 4 h exposure, SRB); assay type: cell-based; conditions: for IC50: Homo sapiens, 4 h
SiHa cells [1] = assay: IC50 assay modified for chronic hypoxia (oxia, hypoxia, anoxia); assay type: cell-based; conditions: for IC50: Homo sapiens
Protocol: There are relatively few viable cells in tumors at O2 concentrations as low as in the above anoxic experiments. In addition, extensive changes in gene expression occur under chronic exposure to intermediate O2 concentrations (chronic hypoxia), including the expression of proteins that regulate pHi. […] Therefore, oxic and anoxic exposures were also tested in these same experiments. The 24 h adaptation to hypoxia had little effect on the subsequent growth of the cultures at either pHe value (Figure S6).
To minimize problems with poor cell attachment under chronic hypoxia, the drugs were added from a 3-fold dilution series made in a separate plate, rather than by serial dilution in the plates containing the cells. In addition, the drugs were removed after the 4 h exposure by centrifuging the plates (200g × 5 min) prior to each aspiration. The same modifications were used for the oxic drug exposures in these experiments.

UT-SCC-74B cells = assay: IC50 assay (inhibition of proliferation, 4 h exposure, SRB); assay type: cell-based; conditions: for IC50: Homo sapiens, 4 h; for IC50 / PCR Anoxic (IC50 at pHe 7.4/IC50 at pHe 6.5) / PCR oxic (IC50 at pHe 7.4/IC50 at pHe 6.5): UT-SCC-74B
Protocol: (§1) Cells were seeded in 96-well plates (SiHa or FaDu 1500 cells/well, UT-SCC-74B 800 cells/well) in 100 μL. After incubation for 2 h, the drugs were added in 50 μL of the same titrated medium at 3× the final concentration to duplicate the wells. After a further 4 h the plates were checked for drug precipitation using a phase contrast microscope, then drugs were removed by aspirating and washing with the standard (pH 7.4) medium, then aspirating again and adding 150 μL of the medium. Cultures were then grown for 5 days before staining with sulphorhodamine B and measuring absorbance, with the estimation of IC50 values using 4-parameter logistic regression, as previously carried out.
The medium and plasticware was equilibrated in the chamber for 3 days prior to use. In the anoxia experiments, FaDu cells were plated in poly-L-lysine coated plates (Corning Cat # 356461) to improve attachment. […]
Footnotes: a Number of experiments. b Anoxic cytotoxicity ratio = oxic IC50/anoxic IC50. c pH
cytotoxicity ratio = IC50 at pHe 7.4/ IC50 at pHe 6.5. d Overall ratio = oxic IC50 pHe 7.4 / anoxic IC50 pHe
6.5. Values are means and errors are SEM. For ratios, the errors are root mean square SEM. […]

SiHa cells [2] = assay: as above; conditions: SiHa; for IC50: Homo sapiens, 4 h
Protocol: as §1
The medium and plasticware was equilibrated in the chamber for 3 days prior to use. In the anoxia experiments, FaDu cells were plated in poly-L-lysine coated plates (Corning Cat # 356461) to improve attachment.
Cells were subsequently grown under standard cell culture conditions (oxia, pHe 7.4) for 5 days before staining with sulforhodamine B (SRB). […] (B) SN30000 (2). (C) BTO acid 4a. Values are means and errors are ranges for duplicate cultures in a single experiment. Fitted curves are 4-parameter logistic regressions. PCR = pH cytotoxicity ratio. ACR = anoxia cytotoxicity ratio. TMR = tumor microenvironment ratio.

[3] = Solubility in AlphaMEM + 5% FBS, pH 7.4; conditions: culture medium (AlphaMEM + 5% FBS), pH 7.4, plasma or biological fluid
[4] = pHe 6.5, 4 h, anoxic, read-out: Anoxic IC50
[5] = pHe 6.5, 4 h, oxic, read-out: Oxic IC50
[6] = pHe 7.4, 4 h, anoxic, read-out: Anoxic IC50
[7] = pHe 7.4, 4 h, oxic, read-out: Oxic IC50
[8] = read-out: Anoxic IC50, SiHa, pHe 6.5, 4 h, anoxic
[9] = read-out: Anoxic IC50, SiHa, pHe 7.4, 4 h, anoxic
[10] = read-out: Oxic IC50, SiHa, pHe 6.5, 4 h, oxic
[11] = read-out: Oxic IC50, SiHa, pHe 7.4, 4 h, oxic

Structure (SMILES): O=C(O)CCCc1ccc(N(CCCl)CCCl)cc1 [Compound 1, chlorambucil]
IC50 (FaDu cells; [4]): 2.26 ± 0.37 µM | IC50 (FaDu cells; [5]): 3.19 ± 0.78 µM | IC50 (FaDu cells; [6]): 13.1 ± 8.7 µM | IC50 (FaDu cells; [7]): 15 ± 1.6 µM | PCR (IC50 for pHe 7.4/IC50 for pHe 6.5) (SiHa cells [1]; 0.2% O2): 9.9 ± 2.8 | PCR (IC50 for pHe 7.4/IC50 for pHe 6.5) (SiHa cells [1]; 20% O2): 6.5 ± 2.0 | PCR (IC50 for pHe 7.4/IC50 for pHe 6.5) (SiHa cells [1]; <0.01% O2): 7.40 ± 1.64 | IC50 (SiHa cells [1]; 0.2% O2 (24 h before and during 4 h exposure), pHe 6.5): 1.75 ± 0.44 µM | IC50 (SiHa cells [1]; 0.2% O2 (24 h before and during 4 h exposure), pHe 7.4): 17.3 ± 2.53 µM | IC50 (SiHa cells [1]; 4 h, 20% O2, pHe 6.5, 4 h): 1.84 ± 0.48 µM | IC50 (SiHa cells [1]; 4 h, 20% O2, pHe 7.4, 4 h): 12 ± 2 µM | IC50 (SiHa cells [1]; 4 h, <0.01% O2, pHe 6.5, 4 h): 1.49 ± 0.18 µM | IC50 (SiHa cells [1]; 4 h, <0.01% O2, pHe 7.4, 4 h): 11 ± 2.1 µM | ACR (IC50 for 20% O2/IC50 for <0.01% O2) (SiHa cells [1]; pHe 6.5): 1.23 ± 0.34 | HCR (IC50 for 20% O2/IC50 for 0.2% O2) (SiHa cells [1]; pHe 6.5): 1.05 ± 0.38 | ACR (IC50 for 20% O2/IC50 for <0.01% O2) (SiHa cells [1]; pHe 7.4): 1.09 ± 0.27 | HCR (IC50 for 20% O2/IC50 for 0.2% O2) (SiHa cells [1]; pHe 7.4): 0.69 ± 0.15 | ACR (oxic IC50/anoxic IC50) (UT-SCC-74B cells): 1.26 ± 0.20 and 0.94 ±0.21 | IC50 (UT-SCC-74B cells; pHe 6.5, 4 h, 20% O2, read-out: Oxic IC50): 0.8 ± 0.17 µM | IC50 (UT-SCC-74B cells; pHe 6.5, 4 h, <0.01% O2, read-out: Anoxic IC50): 0.85 ± 0.06 µM | IC50 (UT-SCC-74B cells; pHe 7.4, 4 h, 20% O2, read-out: Oxic IC50): 6.34 ± 0.88 µM | IC50 (UT-SCC-74B cells; pHe 7.4, 4 h, <0.01% O2, read-out: Anoxic IC50): 5.05 ± 0.38 µM | PCR Anoxic (IC50 at pHe 7.4/IC50 at pHe 6.5) (UT-SCC-74B cells; listed as CHL): 5.9 | PCR Anoxic (IC50 at pHe 7.4/IC50 at pHe 6.5) (UT-SCC-74B cells; listed as CHL (1)): 5.94 ± 0.61 | PCR oxic (IC50 at pHe 7.4/IC50 at pHe 6.5) (UT-SCC-74B cells; listed as CHL): 7.9 | PCR oxic (IC50 at pHe 7.4/IC50 at pHe 6.5) (UT-SCC-74B cells; listed as CHL (1)): 7.93 ± 2.01 | IC50 (SiHa cells [2]; [8]): 3.78 ± 1.51 µM | IC50 (SiHa cells [2]; [9]): 13.6 ± 1.1 µM | IC50 (SiHa cells [2]; [10]): 1.58 ± 0.27 µM | IC50 (SiHa cells [2]; [11]): 12.7 ± 1.2 µM

Structure (SMILES): COC(=O)CCc1n[n+]([O-])c2ccc(C)cc2[n+]1[O-] [Compound 6b, 3-(3-Methoxy-3-oxopropyl)-6-methylbenzo[e][1,2,4]triazine 1,4-Dioxide]
solubility ([3]; kinetic from dmso stock): > 900 µM | melting point: 166 to 168 °C

Structure (SMILES): COC(=O)CCNc1n[n+]([O-])c2cc3c(cc2[n+]1[O-])CCC3 [Compound 10b, 3-((3-Methoxy-3-oxopropyl)amino)-7,8-dihydro-6H-indeno[5,6-e][1,2,4]triazine 1,4-Dioxide]
TMR (oxic IC50 pHe 7.4/anoxic IC50 pHe 6.5) (FaDu cells): 7.31 ± 1.08 | IC50 (FaDu cells; [4]): 40 ± 5.8 µM | IC50 (FaDu cells; [5]): 262 ± 29 µM | IC50 (FaDu cells; [6]): 43.7 ± 12.1 µM | IC50 (FaDu cells; [7]): 292 ± 8 µM | PCR Anoxic (IC50 at pHe 7.4/IC50 at pHe 6.5) (FaDu cells; anoxic): 1.09 ± 0.34 | PCR oxic (IC50 at pHe 7.4/IC50 at pHe 6.5) (FaDu cells; oxic): 1.11 ± 0.13 | ACR (oxic IC50/anoxic IC50) (FaDu cells; pHe 6.5): 6.56 ± 1.19 | ACR (oxic IC50/anoxic IC50) (FaDu cells; pHe 7.4): 6.69 ± 1.86 | solubility ([3]; thermodynamic from solid): 350 µM | IC50 (SiHa cells [2]; [8]): 21 ± 4.2 µM | IC50 (SiHa cells [2]; [9]): 20.4 ± 4.8 µM | IC50 (SiHa cells [2]; [10]): 208 ± 26 µM | IC50 (SiHa cells [2]; [11]): 249 ± 50 µM | TMR (overall TME ratio = oxic IC50 pHe 7.4/anoxic IC50 pHe 6.5) (SiHa cells [2]): 11.9 ± 3.4 | PCR Anoxic (IC50 at pHe 7.4/IC50 at pHe 6.5) (SiHa cells [2]): 0.97 ± 0.30 | PCR oxic (IC50 at pHe 7.4/IC50 at pHe 6.5) (SiHa cells [2]; oxic): 1.20 ± 0.28 | ACR (anoxic cytotoxicity ratio = oxic IC50/anoxic IC50) (SiHa cells [2]; pHe 6.5): 9.90 ±2.34 | ACR (anoxic cytotoxicity ratio = oxic IC50/anoxic IC50) (SiHa cells [2]; pHe 7.4): 12.2 ± 3.8

Now from value to molecule, other results behind:

solubility ([3]; kinetic from dmso stock): > 890 µM
Structure (SMILES): Cc1ccc2c(c1)[n+]([O-])nc(NCCCC(=O)O)[n+]2[O-] [Compound 12a, 3-((3-Carboxypropyl)amino)-7-methylbenzo[e][1,2,4]triazine 1,4-Dioxide]
TMR (oxic IC50 pHe 7.4/anoxic IC50 pHe 6.5) (FaDu cells): >1 | IC50 (FaDu cells; [4]): 271 ± 53 µM | IC50 (FaDu cells; [5]): > 300 µM | IC50 (FaDu cells; [6]): > 300 µM | IC50 (FaDu cells; [7]): > 300 µM | PCR Anoxic (IC50 at pHe 7.4/IC50 at pHe 6.5) (FaDu cells; anoxic): >1 | ACR (oxic IC50/anoxic IC50) (FaDu cells; pHe 6.5): >1 | IC50 (SiHa cells [2]; [8]): 234 ± 17 µM | IC50 (SiHa cells [2]; [9]): > 300 µM | IC50 (SiHa cells [2]; [10]): > 300 µM | IC50 (SiHa cells [2]; [11]): > 300 µM | TMR (overall TME ratio = oxic IC50 pHe 7.4/anoxic IC50 pHe 6.5) (SiHa cells [2]): >1 | PCR Anoxic (IC50 at pHe 7.4/IC50 at pHe 6.5) (SiHa cells [2]): >1 | ACR (anoxic cytotoxicity ratio = oxic IC50/anoxic IC50) (SiHa cells [2]; pHe 6.5): >1

melting point: 185 to 188 °C
Structure (SMILES): Cc1ccc2c(c1)[n+]([O-])nc(NCCCC(=O)O)[n+]2[O-] (hydrate or solvate) [Compound 12a, 3-((3-Carboxypropyl)amino)-7-methylbenzo[e][1,2,4]triazine 1,4-Dioxide]
